Values of other authors in patent US20020051978A1, “Methods and compositions for the identification, assessment, prevention and therapy of human cancers” (priority 2000, published 2002).
Like-named read-outs stand apart in the source and are kept apart here.

Tested on: 60 cancer cell lines (NCI 60 cancer cell line series)
Conditions: cited from earlier work

Q: Which “-Log (GI50)” value (Breast BT-549 (CL5013)) does the source give for `O=C1c2c(O)ccc(O)c2C(=O)c2c(NCCNCCO)ccc(NCCNCCO)c21` [Mitoxantrone] here?
A: 7.2

Q: And the “-Log (GI50)” value (Breast HS-578T CL5006)?
A: 7.0

Q: What about the “-Log (GI50)” value (Breast MCF7(I) (CL5001)) of the same molecule?
A: 8.4

Q: What about the “-Log (GI50)” value (Breast MCF7/ADRr (CL5002)) of the same molecule?
A: 5.4

Q: What about the “-Log (GI50)” value (Breast MDA-MB-231 CL5005) of the same molecule?
A: 6.7

Q: And the “-Log (GI50)” value (Breast MDA-MB-435 (CL5011))?
A: 6.3

Q: What about the “-Log (GI50)” value (Breast MDA-N CL5012) of the same molecule?
A: 6.6

Q: And the “-Log (GI50)” value (Breast T-47D (CL5014))?
A: 7.2

Q: What about the “-Log (GI50)” value (CNS SF-268 CL12014) of the same molecule?
A: 7.5

Q: And the “-Log (GI50)” value (CNS SF-295 CL12015)?
A: 7.7

Q: What about the “-Log (GI50)” value (CNS SF-539 CL12016) of the same molecule?
A: 7.8

Q: What about the “-Log (GI50)” value (CNS SNB-19 (CL12002)) of the same molecule?
A: 7.8

Q: What about the “-Log (GI50)” value (CNS SNB-75(I) CL12005) of the same molecule?
A: 7.9

Q: And the “-Log (GI50)” value (CNS U251(I) CL12009)?
A: 8.0

Q: What about the “-Log (GI50)” value (Colon COLO-250 CL4010) of the same molecule?
A: 7.0

Q: What about the “-Log (GI50)” value (Colon HCC-2998 (CL4002)) of the same molecule?
A: 6.6

Q: And the “-Log (GI50)” value (Colon HCT-15 CL4015)?
A: 6.6

Q: What about the “-Log (GI50)” value (Colon HCT-116 (CL4003)) of the same molecule?
A: 7.3

Q: And the “-Log (GI50)” value (Colon HT29(I) CL4001)?
A: 6.6

Q: And the “-Log (GI50)” value (Colon KM12 (CL4017))?
A: 6.3

Q: What about the “-Log (GI50)” value (Colon SW-620 (CL4009)) of the same molecule?
A: 7.3

Q: What about the “-Log (GI50)” value (Leukemia CCRF-CEM(I) (CL7003)) of the same molecule?
A: 8.2

Q: And the “-Log (GI50)” value (Leukemia HL-60(I) (CL7008))?
A: 8.0

Q: What about the “-Log (GI50)” value (Leukemia K562(I) CL7005) of the same molecule?
A: 6.9

Q: And the “-Log (GI50)” value (Leukemia MOLT-4 (CL7006))?
A: 8.3

Q: And the “-Log (GI50)” value (Leukemia RPMI-8226(I) (CL7010))?
A: 6.7

Q: And the “-Log (GI50)” value (Leukemia SR CL7019)?
A: 8.1

Q: What about the “-Log (GI50)” value (Melanoma LOX IMVI CL10001) of the same molecule?
A: 7.7

Q: What about the “-Log (GI50)” value (Melanoma M14 (CL10014)) of the same molecule?
A: 6.9

Q: What about the “-Log (GI50)” value (Melanoma MALME-3M CL10002) of the same molecule?
A: 6.9

Q: And the “-Log (GI50)” value (Melanoma SK-MEL-2 (CL10005))?
A: 6.4

Q: And the “-Log (GI50)” value (Melanoma SK-MEL-5 (CL10007))?
A: 7.3

Q: What about the “-Log (GI50)” value (Melanoma SK-MEL-28 (CL10008)) of the same molecule?
A: 6.3

Q: What about the “-Log (GI50)” value (Melanoma UACC-62 (CL10020)) of the same molecule?
A: 7.4

Q: And the “-Log (GI50)” value (Melanoma UACC-257 (CL10021))?
A: 5.7

Q: What about the “-Log (GI50)” value (NCSLC NCI-H522 CL1003) of the same molecule?
A: 7.3

Q: What about the “-Log (GI50)” value (NSCLC A549/ATCC (CL1004)) of the same molecule?
A: 7.9

Q: And the “-Log (GI50)” value (NSCLC EKVX (CL1008))?
A: 6.5

Q: What about the “-Log (GI50)” value (NSCLC HOP-62 (CL1026)) of the same molecule?
A: 7.9

Q: What about the “-Log (GI50)” value (NSCLC HOP-92 (CL1029)) of the same molecule?
A: 7.8

Q: What about the “-Log (GI50)” value (NSCLC NCI-H23(I) CL1001) of the same molecule?
A: 7.2

Q: And the “-Log (GI50)” value (NSCLC NCI-H226 CL1013)?
A: 7.8

Q: What about the “-Log (GI50)” value (NSCLC NCI-H332M CL1017) of the same molecule?
A: 6.6

Q: What about the “-Log (GI50)” value (NSCLC NCI-H460 CL1021) of the same molecule?
A: 8.2

Q: What about the “-Log (GI50)” value (Ovarian IGROV1 CL6010) of the same molecule?
A: 6.7

Q: And the “-Log (GI50)” value (Ovarian OVCAR-3 CL6001)?
A: 6.5

Q: What about the “-Log (GI50)” value (Ovarian OVCAR-4 CL6002) of the same molecule?
A: 6.5

Q: And the “-Log (GI50)” value (Ovarian OVCAR-5 CL6003)?
A: 6.5

Q: What about the “-Log (GI50)” value (Ovarian OVCAR-8 CL6005) of the same molecule?
A: 7.4

Q: What about the “-Log (GI50)” value (Ovarian SK-OV-3 CL6011) of the same molecule?
A: 7.4

Q: And the “-Log (GI50)” value (Prostate DU-145 CL11003)?
A: 7.5

Q: And the “-Log (GI50)” value (Prostate PC-3(I) CL11001)?
A: 6.9

Q: What about the “-Log (GI50)” value (Renal 786-O CL9018) of the same molecule?
A: 7.7

Q: And the “-Log (GI50)” value (Renal A498 CL9013)?
A: 7.2

Q: What about the “-Log (GI50)” value (Renal ACHN CL9023) of the same molecule?
A: 7.9

Q: And the “-Log (GI50)” value (Renal CAKI-1 CL9015)?
A: 8.0

Q: What about the “-Log (GI50)” value (Renal RXF-393 CL9016) of the same molecule?
A: 7.2

Q: And the “-Log (GI50)” value (Renal SN12C CL9008)?
A: 8.1

Q: What about the “-Log (GI50)” value (Renal TK10 CL9024) of the same molecule?
A: 6.4

Q: And the “-Log (GI50)” value (Renal UO-31 CL9004)?
A: 6.5
